Laboratory results reported in ChEMBL document CHEMBL1149899 (J Med Chem, 2008).

Assays:
[1] = Binding affinity to yeast Hsp90 by isothermal titration calorimetry; set-up: species or system Saccharomyces cerevisiae
[2] = Inhibition of ATPase activity of yeast Hsp90; set-up: species or system Saccharomyces cerevisiae

- Kd [1]: 1.2 µM
- IC50 [2]: 7 µM
Compound: COC1=C2C[C@@H](C)C[C@H](OC)[C@H](O)[C@@H](C)/C=C(\C)[C@H](OC(N)=O)[C@@H](OC)/C=C\C=C(/C)C(=O)NC(=CC1=O)C2=O [GELDANAMYCIN]
